How the values were obtained:
[1] = tested on: B16OVA tumor-bearing mice; test: Copanlisib-triggered colitis in B16OVA tumor model; type: in vivo, C57BL/6 mice; details: copanlisib 25 mg/kg i.p.
Method: B16F10, B16OVA, and MC38 xenograft tumors were inoculated into healthy C57BL/6 mice (female, 7 to 8 weeks old) through s.c. inoculation of B16F10 cells (2.5×10^5 cells/mouse) in serum-free DMEM, B16OVA cells (2.5×10^5 cells/mouse) in serum-free RPMI 1640 culture medium, and MC38 cells (5×10^5 cells/mouse) in serum-free DMEM in the right flank. Tumor volume (volume=0.5×a×b^2, where a is the large diameter and b is the small diameter) was measured every 2 to 3 days from day 7 after the tumor was inoculated.
For the COP-triggered colitis study in the B16OVA tumor model, COP treatment was provided by i.p. administration of COP (25 mg/kg, in saline) at days 6, 8, 10, 12, 14, 16 and 18 after tumor inoculation. Colitis was induced by feeding the tumor-bearing mice 3% DSS at day 14 for 4 days. For the colitis treatment group, mice received a single s.c. treatment with COMBO COIN at day 18. Bodyweight and DAI scores were monitored every 2 or 3 days. Mice were euthanized at 22 days post-inoculation. Colons were preserved by trained veterinary technicians at the UTSW ARC Diagnostic Laboratory without prior knowledge of the treatment. The lengths of preserved colons were measured and fixed with 10% NBF for 24 h. Fixed specimens were kept in 70% ethanol and transferred to the UTSW Histo Pathology Core for histological study (H&E, Ki67 and TUNEL stains).

[2] = Aqueous electrophoresis (zeta potential); type: physicochemical; details: dispersed in 1X PBS, diluted 100 times with deionized water, pH 6.8-8.0, 25° C.
Method: Sphere-equivalent intensity-average diameters (Dh) and zeta potentials of all NF samples were measured in a Malvern Zetasizer Pro instrument.

| Compound | B16OVA tumor growth [1] | colitis symptoms induced by cancer treatment [1] | Average zeta potential [2] |
| --- | --- | --- | --- |
| COc1c(OCCCN2CCOCC2)ccc2c1N=C(NC(=O)c1cnc(N)nc1)N1CCN=C21 [Copanlisib, copanlisib] | effectively inhibited B16OVA tumor growth | induced mild colitis symptoms |  |
| ACESPLKRQCGGG [TGF-β1 mimetic peptide] |  |  | +22.1 ± 3.1 mV |

From patent US20260263529A1, “BIOENGINEERED COLON-SPECIFIC IMUNE NICHE FOR THE TREATMENT OF ULCERATIVE COLITIS” (THE BOARD OF REGENTS OF THE UNIVERSITY OF TEXAS SYSTEM, priority 2023, published 2026)
